# Test results: ChEMBL document CHEMBL4138123, “Design, synthesis and biological evaluation of novel pyrazolochalcones as potential modulators of PI3K/Akt/mTOR pathway and inducers of apoptosis in breast cancer cells” (Eur J Med Chem, 2017)
# Tests used:
# Format in all cases: functional
# [1] = tested on: SF-539; test: Cytotoxicity against human SF539 cells assessed as cell growth at 10 uM after 48 hrs by sulforhodamine B assay relative to control; conditions: SF-539, 48 h, read-out: Activity
# [2] = tested on: DU-145; test: Cytotoxicity against human DU145 cells assessed as growth inhibition after 48 hrs by sulforhodamine B assay; conditions: DU-145, 48 h; for CC50: read-out: LC50 (the source's name)
# [3] = tested on: UACC-62; test: Cytotoxicity against human UACC62 cells assessed as cell growth at 0.1 uM after 48 hrs by sulforhodamine B assay relative to control; conditions: UACC-62, 48 h, read-out: Activity
# [4] = tested on: MDA-MB-231; test: Cytotoxicity against human MDA-MB-231 cells assessed as growth inhibition after 48 hrs by sulforhodamine B assay; conditions: MDA-MB-231, 48 h
# [5] = tested on: HOP-62; test: Cytotoxicity against human HOP62 cells assessed as cell growth at 0.1 uM after 48 hrs by sulforhodamine B assay relative to control; conditions: HOP-62, 48 h, read-out: Activity
# [6] = tested on: COLO 205; test: Cytotoxicity against human COLO205 cells assessed as cell growth at 10 uM after 48 hrs by sulforhodamine B assay relative to control; conditions: COLO 205, 48 h, read-out: Activity
# [7] = tested on: Hs-578T; test: Cytotoxicity against human Hs 578T cells assessed as cell growth at 0.01 uM after 48 hrs by sulforhodamine B assay relative to control; conditions: read-out: Activity
# [8] = tested on: MCF7; test: Cytotoxicity against human MCF7 cells assessed as cell growth at 0.01 uM after 48 hrs by sulforhodamine B assay relative to control; conditions: MCF7, 48 h, read-out: Activity
# [9] = tested on: SNB-19; test: Cytotoxicity against human SNB19 cells assessed as cell growth at 100 uM after 48 hrs by sulforhodamine B assay relative to control; conditions: SNB-19, 48 h, read-out: Activity
# [10] = tested on: SR; test: Cytotoxicity against human SR cells assessed as cell growth at 1 uM after 48 hrs by sulforhodamine B assay relative to control; conditions: read-out: Activity
# [11] = tested on: HCT-116; test: Cytotoxicity against human HCT116 cells assessed as cell growth at 0.01 uM after 48 hrs by sulforhodamine B assay relative to control; conditions: HCT-116, 48 h, read-out: Activity
# [12] = tested on: IGROV-1; test: Cytotoxicity against human IGROV1 cells assessed as cell growth at 100 uM after 48 hrs by sulforhodamine B assay relative to control; conditions: IGROV-1, 48 h, read-out: Activity
# [13] = tested on: SR; test: Cytotoxicity against human SR cells assessed as cell growth at 100 uM after 48 hrs by sulforhodamine B assay relative to control; conditions: read-out: Activity
# [14] = tested on: UO-31; test: Cytotoxicity against human UO31 cells assessed as cell growth at 100 uM after 48 hrs by sulforhodamine B assay relative to control; conditions: UO-31, 48 h, read-out: Activity
# [15] = tested on: MDA-MB-435; test: Cytotoxicity against human MDA-MB-435 cells assessed as cell growth at 1 uM after 48 hrs by sulforhodamine B assay relative to control; conditions: MDA-MB-435, 48 h, read-out: Activity
# [16] = tested on: M14; test: Cytotoxicity against human M14 cells assessed as growth inhibition after 48 hrs by sulforhodamine B assay; conditions: M14, 48 h
# [17] = tested on: Hs-578T; test: Cytotoxicity against human Hs 578T cells assessed as cell growth at 0.1 uM after 48 hrs by sulforhodamine B assay relative to control; conditions: read-out: Activity
# [18] = tested on: UACC-62; test: Cytotoxicity against human UACC62 cells assessed as cell growth at 100 uM after 48 hrs by sulforhodamine B assay relative to control; conditions: UACC-62, 48 h, read-out: Activity
# [19] = tested on: SK-MEL-28; test: Cytotoxicity against human SK-MEL-28 cells assessed as cell growth at 100 uM after 48 hrs by sulforhodamine B assay relative to control; conditions: SK-MEL-28, 48 h, read-out: Activity
# [20] = tested on: UO-31; test: Cytotoxicity against human UO31 cells assessed as cell growth at 0.1 uM after 48 hrs by sulforhodamine B assay relative to control; conditions: UO-31, 48 h, read-out: Activity
# [21] = tested on: SK-MEL-28; test: Cytotoxicity against human SK-MEL-28 cells assessed as cell growth at 10 uM after 48 hrs by sulforhodamine B assay relative to control; conditions: SK-MEL-28, 48 h, read-out: Activity
# [22] = tested on: HCT-116; test: Cytotoxicity against human HCT116 cells assessed as cell growth at 100 uM after 48 hrs by sulforhodamine B assay relative to control; conditions: HCT-116, 48 h, read-out: Activity
# [23] = tested on: OVCAR-3; test: Cytotoxicity against human OVCAR3 cells assessed as cell growth at 1 uM after 48 hrs by sulforhodamine B assay relative to control; conditions: OVCAR-3, 48 h, read-out: Activity
# [24] = tested on: LOX IMVI; test: Cytotoxicity against human LOXIMVI cells assessed as growth inhibition after 48 hrs by sulforhodamine B assay
# [25] = tested on: A498; test: Cytotoxicity against human A498 cells assessed as cell growth at 10 uM after 48 hrs by sulforhodamine B assay relative to control; conditions: A498, 48 h, read-out: Activity
# [26] = tested on: HCC 2998; test: Cytotoxicity against human HCC2998 cells assessed as cell growth at 1 uM after 48 hrs by sulforhodamine B assay relative to control; conditions: HCC 2998, 48 h, read-out: Activity
# [27] = tested on: UACC-62; test: Cytotoxicity against human UACC62 cells assessed as growth inhibition after 48 hrs by sulforhodamine B assay; conditions: UACC-62, 48 h
# [28] = tested on: NCI-H522; test: Cytotoxicity against human NCI-H522 cells assessed as cell growth at 100 uM after 48 hrs by sulforhodamine B assay relative to control; conditions: NCI-H522, 48 h, read-out: Activity
# [29] = tested on: MDA-MB-468; test: Cytotoxicity against human MDA-MB-468 cells assessed as cell growth at 10 uM after 48 hrs by sulforhodamine B assay relative to control; conditions: MDA-MB-468, 48 h, read-out: Activity
# [30] = tested on: SK-MEL-5; test: Cytotoxicity against human SK-MEL-5 cells assessed as cell growth at 0.1 uM after 48 hrs by sulforhodamine B assay relative to control; conditions: SK-MEL-5, 48 h, read-out: Activity
# [31] = tested on: OVCAR-5; test: Cytotoxicity against human OVCAR5 cells assessed as cell growth at 1 uM after 48 hrs by sulforhodamine B assay relative to control; conditions: OVCAR-5, 48 h, read-out: Activity
# [32] = tested on: UO-31; test: Cytotoxicity against human UO31 cells assessed as cell growth at 10 uM after 48 hrs by sulforhodamine B assay relative to control; conditions: UO-31, 48 h, read-out: Activity
# [33] = tested on: T47D; test: Cytotoxicity against human T47D cells assessed as cell growth at 0.01 uM after 48 hrs by sulforhodamine B assay relative to control; conditions: read-out: Activity
# [34] = tested on: M14; test: Cytotoxicity against human M14 cells assessed as cell growth at 0.1 uM after 48 hrs by sulforhodamine B assay relative to control; conditions: M14, 48 h, read-out: Activity
# [35] = tested on: SF-539; test: Cytotoxicity against human SF539 cells assessed as growth inhibition after 48 hrs by sulforhodamine B assay; conditions: SF-539, 48 h
# [36] = tested on: NCI-H226; test: Cytotoxicity against human NCI-H226 cells assessed as cell growth at 0.1 uM after 48 hrs by sulforhodamine B assay relative to control; conditions: NCI-H226, 48 h, read-out: Activity
smiles,measurement,setting,value
COc1cc(-c2cc(/C=C/C(=O)c3ccc4c(c3)OCO4)[nH]n2)cc(OC)c1OC,growth at 10 µM,[1],-27%
same,TGI,[2],9.56 µM
same,CC50,[2],> 100 µM
same,growth at 0.1 µM,[3],96%
same,LC50,[4],> 100 µM
same,TGI,[4],> 100 µM
same,growth at 0.1 µM,[5],100%
same,growth at 10 µM,[6],-66%
same,growth at 0.01 µM,[7],93%
same,growth at 0.01 µM,[8],89%
same,growth at 100 µM,[9],6%
same,growth at 1 µM,[10],32%
same,growth at 0.01 µM,[11],104%
same,growth at 100 µM,[12],-8%
same,growth at 100 µM,[13],2%
same,growth at 100 µM,[14],-79%
same,growth at 1 µM,[15],90%
same,LC50 (concentration killing 50% of cells),[16],> 100 µM
same,TGI,[16],> 100 µM
same,growth at 0.1 µM,[17],98%
same,growth at 100 µM,[18],22%
same,growth at 100 µM,[19],-16%
same,growth at 0.1 µM,[20],83%
same,growth at 10 µM,[21],-14%
same,growth at 100 µM,[22],1%
same,growth at 1 µM,[23],102%
same,LC50,[24],7.83 µM
same,TGI,[24],3.78 µM
same,growth at 10 µM,[25],9%
same,growth at 1 µM,[26],106%
same,LC50,[27],> 100 µM
same,TGI,[27],> 100 µM
same,growth at 100 µM,[28],-97%
same,growth at 10 µM,[29],-88%
same,growth at 0.1 µM,[30],97%
same,growth at 1 µM,[31],88%
same,growth at 10 µM,[32],-29%
same,growth at 0.01 µM,[33],100%
same,growth at 0.1 µM,[34],97%
same,LC50 (concentration killing 50% of cells),[35],25.4 µM
same,TGI,[35],5.73 µM
same,growth at 0.1 µM,[36],98%
COc1ccc(C(=O)/C=C/c2cc(-c3cc(OC)c(OC)c(OC)c3)n[nH]2)cc1OC,growth at 10 µM,[1],-94%
same,TGI,[2],1.84 µM
same,CC50,[2],4.76 µM
same,growth at 0.1 µM,[3],95%
same,LC50,[4],6.32 µM
same,TGI,[4],3.06 µM
same,growth at 0.1 µM,[5],100%
same,growth at 10 µM,[6],-93%
same,growth at 0.01 µM,[7],98%
same,growth at 0.01 µM,[8],89%
same,growth at 100 µM,[9],-95%
same,growth at 1 µM,[10],11%
same,growth at 0.01 µM,[11],99%
same,growth at 100 µM,[12],-73%
same,growth at 100 µM,[13],3%
same,growth at 100 µM,[14],-96%
same,growth at 1 µM,[15],70%
same,LC50 (concentration killing 50% of cells),[16],7.38 µM
same,TGI,[16],3.69 µM
same,growth at 0.1 µM,[17],99%
same,growth at 100 µM,[18],-93%
same,growth at 100 µM,[19],-90%
same,growth at 0.1 µM,[20],87%
same,growth at 10 µM,[21],-88%
same,growth at 100 µM,[22],-13%
same,growth at 1 µM,[23],91%
same,LC50,[24],5.53 µM
same,TGI,[24],2.76 µM
same,growth at 10 µM,[25],-87%
same,growth at 1 µM,[26],116%
same,LC50,[27],5.98 µM
same,TGI,[27],3.22 µM
same,growth at 100 µM,[28],-97%
same,growth at 10 µM,[29],-87%
same,growth at 0.1 µM,[30],96%
same,growth at 1 µM,[31],86%
same,growth at 10 µM,[32],-97%
same,growth at 0.01 µM,[33],93%
same,growth at 0.1 µM,[34],98%
same,GI50,[35],1.27 µM
same,LC50 (concentration killing 50% of cells),[35],5.31 µM
same,TGI,[35],2.6 µM
same,growth at 0.1 µM,[36],97%
